# Experimental data taken from paper PMC7278776, “Multidrug Resistance Modulation Activity of Silybin Derivatives and Their Anti-Inflammatory Potential” (Antioxidants, 2020).
# Where two headings read alike, the source gives them in different places. Marks after values point to notes of the source that are not given here.
# How the values were obtained:
# HepG2 cells = assay: CAA (cellular antioxidant activity) assay; type: cell-based; conditions: Homo sapiens
# Procedure: For the CAA assay, human hepatocellular carcinoma HepG2 cells (ATCC, Manassas, VA, USA) were seeded into a 96-well microplate at a density of 1 × 10^5 cells/well in EMEM medium supplemented with 10% of FBS, 2 mM L-glutamine and 1 × antibiotic antimycotic solution. The cells were maintained in a CO2 incubator (5% CO2, 37 °C, Memmert GmbH & Co, Büchenbach, Germany). The following day, the plates were washed with PBS and new fresh DMEM was added into each well supplemented with tested samples in the concentration range of 6.25–100 µM and fluorescent probe DCFH-DA (12.5 mg/L). After 1 h of incubation at 37 °C, the medium was replaced with AAPH solution (0.16 mg/mL in PBS), except for the negative control, where PBS was added instead. Directly, the fluorescence was recorded for 2 h in 5 min steps at 485/540 nm excitation/emission (ex./em.).
# TNF-α = TNF-α release by LPS-induced macrophages (ELISA); type: cell-based, mouse; conditions: for IC50: Mus musculus; for TNF-α (pg/mL): untreated LPS control 2954 ± 92
# Procedure: To determine the level of inflammatory cytokine TNF-α, macrophages were pre-cultivated with the tested compounds (12.5–50 µM) for 24 h. Thereafter, the plates were washed with PBS and new MEM medium enriched with LPS (1 µg/mL) was added to the wells. After 2 h of incubation, the plates were centrifuged (1000× g; 10 min, 4 °C) and then the medium was removed and frozen to −80 °C. Prior to the detection, the samples were diluted in ELISA diluent in a 1:10 ratio. […]
# A2780/DOX = assay: Viability of A2780/DOX cells (resazurin); conditions: Homo sapiens, A2780, read-out: IC50 (µM), concentration necessary to halve cell viability
# Procedure: To determine the NO production, the medium was mixed with Griess reagent (0.04 g/mL, prepared in deionized water) in a 1:1 ratio. After 15 min, absorbance was recorded at 540 nm. To determine cell viability, the resazurin solution (0.03 mg/mL in PBS) was added to the cells. After 2 h of incubation, fluorescence was recorded (560/590 nm, ex./em.).
# A multidrug resistant ovarian sub-line resistant to doxorubicin (A2780/DOX, Sigma-Aldrich) was cultivated in DMEM medium with 10% FBS and 1 × antibiotic antimycotic solution. Every other passage, doxorubicin at the final concentration of 0.1 µM was added to the culture medium to maintain the resistance of the cell line. To perform experiments, the cells were seeded at 1 × 10^5 cell/mL into the wells of a 96-well plate and incubated for 24 h. Afterwards, the cells were washed with PBS and fresh DMEM medium with tested compounds at 10, 20 and 30 µM were added to each well, except for the control wells. Subsequently, the cells were exposed to increasing concentrations of doxorubicin (0.6–20 µM) for 72 h. After incubation, the resazurin assay was performed as described above. The IC50 of doxorubicin was calculated for both the control and the samples and the fold change was counted up. […] The fold change lower than 1 means an antagonistic effect. (1) FOLD CHANGE=IC50 value of DOX cells treated with chemotherapeutic /IC50 value of DOX cells treated with chemotherapeutic and compound
# ABCA1 = ABCA1 mRNA expression (real-time PCR); type: cell-based, human; conditions: A2780/DOX
# Procedure: (§1) The A2780/DOX cell line was seeded into 5 cm Petri dishes with DMEM medium at 1 × 10^5 cell/mL. After 24 h, the dishes were washed with PBS and new DMEM medium supplemented with doxorubicin (at concentration equal to IC25) and samples (10 µM) were added. After 48 h of treatment, the cells were washed with PBS and harvested using the standard trypsin-EDTA procedure. The harvested cells were centrifuged (3200× g; 10 min, 4 °C). The supernatant was discarded, and the pellets were washed with 1.5 mL of cooled PBS (5400× g; 10 min, 4 °C). The washing step was repeated with 1 mL of PBS and the cells were centrifuged again (10,000× g; 3 min, 4 °C). Afterwards, the pellets were resuspended in 1 mL of Trizol (Invitrogen, Carlsbad, CA, USA) and transferred into pre-cooled RNase-free microfuge tubes. The samples were stored at −80 °C.
# (§2) A Quant-iT RiboGreen RNA Assay Kit (Invitrogen) was used to determine the RNA concentration using the Infinite M200 plate reader (Tecan, Männedor, Switzerland). The cDNA was prepared from 0.5 µg of total RNA using a RevertAid First Strand Synthesis cDNA Kit (MBI Fermentas, Vilnius, Lithuania). The amplification of the ubiquitin C gene fragment was used to determine the quality of cDNA.
# (§3) The experiment was performed using the ViiA7 Real-Time polymerase chain reaction (PCR) System (Life Technologies, Camarillo, CA, USA) with a 384-well block. Before quantitative real-time PCR, the master mix was prepared by mixing 2 µL of 8 × diluted cDNA, 1.75 µL of RNase free water, 1 µL of 5 × HotFIREPol Probe quantitative PCR Mix Plus (Solis Biodyne, Tartu, Estonia) and 0.25 µL of specific 20 × TaqMan Gene Expression Assay (Life Technologies), giving 5 µL of final reaction volume. Cycling parameters were: initial hold at 50 °C for 2 min and denaturation at 95 °C for 10 min, followed by 45 cycles consisting of denaturation at 95 °C for 15 s and annealing/extension at 60 °C for 1 min. After each extension phase, the fluorescence values were acquired. Duplicate samples were used for measurement and samples with a standard deviation of duplicates > 1.0 cycle threshold (Ct) were re-analyzed. The real time PCR procedure was maintained according to MIQE (Minimum information for publication of quantitative real-time PCR experiments) guidelines. The software REST 2009 (Qiagen, Hilden, Germany) served to compare relative transcript levels of genes in the cell line.
# ABCA3 = ABCA3 mRNA expression (real-time PCR); type: cell-based, human; conditions: A2780/DOX, 10 µM combined with doxorubicin at IC25, 48 h
# Procedure: as §1, §2, §3
# ABCF1 = ABCF1 mRNA expression (real-time PCR); type: cell-based, human; conditions: A2780/DOX, 10 µM combined with doxorubicin at IC25, 48 h
# Procedure: as §1, §2, §3
# ABCA2 = ABCA2 mRNA expression (real-time PCR); type: cell-based, human; conditions: 10 µM, 48 h, without doxorubicin
# ABCB2 = ABCB2 mRNA expression (real-time PCR); type: cell-based, human; conditions: A2780/DOX, 10 µM, 48 h, without doxorubicin
# ABCB9 = ABCB9 mRNA expression (real-time PCR); type: cell-based, human; conditions: A2780/DOX, 10 µM, 48 h, without doxorubicin
# ABCC5 = ABCC5 mRNA expression (real-time PCR); type: cell-based, human; conditions: A2780/DOX, 10 µM, 48 h, without doxorubicin
# [1] = 10 µM combined with doxorubicin at IC25, 48 h
# [2] = HepG2, DCFH-DA/AAPH, read-out: CAA, concentration necessary to halve the fluorescence response (IC50)
# [3] = RAW264.7, RAW 264.7, 24 h pre-cultivation, then LPS 2 h, read-out: TNF-α, concentration necessary to halve the release (IC50)
SMILES,"IC50 (HepG2 cells; HepG2, read-out: CAA, concentration necessary to halve the fluorescence response (IC50)) [µM]","IC50 (TNF-α; RAW264.7, read-out: TNF-α, concentration necessary to halve the release (IC50)) [µM]",TNF-α (pg/mL) (TNF-α; compound 12.5 µM),TNF-α (pg/mL) (TNF-α; compound 25 µM),TNF-α (pg/mL) (TNF-α; compound 50 µM),IC50 (A2780/DOX) [µM],ABCA1 Expression Difference (ABCA1; [1]),ABCA3 Expression Difference (ABCA3),ABCF1 Expression Difference (ABCF1),downregulation of ABCA2 expression (ABCA2) [%],ABCA2 Expression Difference (ABCA2; A2780/DOX),ABCA2 Treated vs. Untreated (ABCA2; A2780/DOX),ABCB2 Expression Difference (ABCB2),IC50 (HepG2 cells; [2]) [µM],IC50 (TNF-α; [3]) [µM],"ABCA1 Expression Difference (ABCA1; 10 µM, 48 h, without doxorubicin)",ABCF1 Treated vs. Untreated (ABCF1),ABCB9 Expression Difference (ABCB9),ABCC5 Expression Difference (ABCC5)
"COc1cc([C@@H]2Oc3cc(-c4oc5cc(O)cc(O)c5c(=O)c4O)ccc3O[C@H]2CO)ccc1O [Dehydrosilybin B, 2,3-dehydrosilybin B]",12.1 ± 0.4,44.2 ± 0.3,2528 ± 171 ^b pg/mL,2774 ± 84 ^d pg/mL,982 ± 25 ^c pg/mL,27.1 ± 0.4,4.412,1.060,0.784,11,0.891,DOWN,1.625,–,–,–,–,–,–
"COc1cc([C@H]2Oc3cc([C@H]4Oc5cc(O)cc(O)c5C(=O)[C@@H]4O)ccc3O[C@@H]2CO)ccc1O [Silybin A, silybin A]",–,–,2092 ± 48 ^a pg/mL,1476 ± 39 ^b pg/mL,415 ± 4 ^b pg/mL,252 ± 7.6,2.702,–,–,–,1.078,–,1.141,9.8 ± 0.4,29.9 ± 1.35,–,–,–,–
"COc1cc(C2Oc3cc([C@H]4Oc5cc(O)cc(O)c5C(=O)[C@@H]4O)ccc3OC2CO)ccc1O (stereo partly drawn) [Silybin AB, silybin]",–,–,2497 ± 37 ^b pg/mL,2425 ± 145 ^c pg/mL,1177 ± 75 ^d pg/mL,197 ± 4,2.922,1.142,0.137,–,2.583,–,–,10.7 ± 0.9,38.7,2.021,DOWN,2.091,1.819
